Columns and labels:
Assay in all cases: relative viability (nuclei count vs DMSO), 5 days (fraction); higher = more cells survive
[1] = compound: COc1cc([C@@H]2c3cc4c(cc3[C@@H](O[C@@H]3O[C@@H]5CO[C@@H](C)O[C@H]5[C@H](O)[C@H]3O)[C@H]3COC(=O)[C@H]23)OCO4)cc(OC)c1O [Etoposide] + CC1(C)CCC(c2ccc(Cl)cc2)=C(CN2CCN(c3ccc(C(=O)NS(=O)(=O)c4ccc(N[C@H](CCN5CCOCC5)CSc5ccccc5)c(S(=O)(=O)C(F)(F)F)c4)cc3)CC2)C1 [Navitoclax] (partner 0.5 µM)
Outline: (§1)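 Values are medians from duplicate plates. Each reflects relative viability, defined as the nuclei count of treated wells over that of vehicle wells. Lung cancer cell lines in 1536-well plates were pin-tool dosed one day after seeding with one drug alone or with a fixed anchor-drug dose plus five library-drug doses (not always all listed) in √10 steps, then fixed, stained and imaged at 4× after 5 days.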

[2] = compound: CC1=C(N=C(N=C1N)[C@H](CC(=O)N)NC[C@@H](C(=O)N)N)C(=O)N[C@@H]([C@H](C2=CN=CN2)OC3C(C(C(C(O3)CO)O)O)OC4C(C(C(C(O4)CO)O)OC(=O)N)O)C(=O)N[C@H](C)[C@H]([C@H](C)C(=O)N[C@@H]([C@@H](C)O)C(=O)NCCC5=NC(=CS5)C6=NC(=CS6)C(=O)NCCC[S+](C)C)O [Bleomycin] + COc1cc2c(Oc3ccc(NC(=O)C4(C(=O)Nc5ccc(F)cc5)CC4)cc3F)ccnc2cc1OCCCN1CCOCC1 [Foretinib] (partner 0.25 µM); settings: main component drawn
Outline: as §1

[3] = compound: CC1=C(N=C(N=C1N)[C@H](CC(=O)N)NC[C@@H](C(=O)N)N)C(=O)N[C@@H]([C@H](C2=CN=CN2)OC3C(C(C(C(O3)CO)O)O)OC4C(C(C(C(O4)CO)O)OC(=O)N)O)C(=O)N[C@H](C)[C@H]([C@H](C)C(=O)N[C@@H]([C@@H](C)O)C(=O)NCCC5=NC(=CS5)C6=NC(=CS6)C(=O)NCCC[S+](C)C)O [Bleomycin] + O=C(CCCCCCC(=O)Nc1ccccc1)NO [Vorinostat] (partner 1 µM); settings: main component drawn
Outline: as §1

[4] = compound: COc1cc([C@@H]2c3cc4c(cc3[C@@H](O[C@@H]3O[C@@H]5CO[C@@H](C)O[C@H]5[C@H](O)[C@H]3O)[C@H]3COC(=O)[C@H]23)OCO4)cc(OC)c1O [Etoposide] + CC(=O)Nc1cccc(-n2c(=O)n(C3CC3)c(=O)c3c(Nc4ccc(I)cc4F)n(C)c(=O)c(C)c32)c1 [Trametinib] (partner 0.02 µM)
Outline: as §1

Work on HCC-15 yielded a relative viability ([1]; first compound 0.01 µM) of 0.652, a relative viability ([1]; first compound 0.03162 µM) of 0.647 and a relative viability ([1]; first compound 0.1 µM) of 0.626. For the same cell line, the relative viability ([1]; first compound 0.3162 µM) was 0.31, the relative viability ([1]; first compound 1 µM) was 0.125 and the relative viability ([2]; first compound 0.01 µM) was 0.869. For the same cell line, the relative viability ([2]; first compound 0.03162 µM) was 0.913, the relative viability ([2]; first compound 0.1 µM) was 0.752 and the relative viability ([2]; first compound 0.3162 µM) was 0.33. For the same cell line, the relative viability ([2]; first compound 1 µM) was 0.227, the relative viability ([3]; first compound 0.01 µM) was 0.77 and the relative viability ([3]; first compound 0.03162 µM) was 0.864. For the same cell line, the relative viability ([3]; first compound 0.1 µM) was 0.702, the relative viability ([3]; first compound 0.3162 µM) was 0.327 and the relative viability ([3]; first compound 1 µM) was 0.249. For the same cell line, the relative viability ([4]; first compound 0.01 µM) was 0.35, the relative viability ([4]; first compound 0.03162 µM) was 0.469 and the relative viability ([4]; first compound 0.1 µM) was 0.34. It also gave a relative viability ([4]; first compound 0.3162 µM) of 0.287 and a relative viability ([4]; first compound 1 µM) of 0.192.

HCC-44 gave a relative viability ([1]; first compound 0.01 µM) of 0.845, a relative viability ([1]; first compound 0.03162 µM) of 1.05 and a relative viability ([1]; first compound 0.1 µM) of 1.1. It also gave a relative viability ([1]; first compound 0.3162 µM) of 0.882, a relative viability ([1]; first compound 1 µM) of 0.496 and a relative viability ([3]; first compound 0.01 µM) of 0.906. It also gave a relative viability ([3]; first compound 0.03162 µM) of 0.989, a relative viability ([3]; first compound 0.1 µM) of 0.733 and a relative viability ([3]; first compound 0.3162 µM) of 0.459. It also gave a relative viability ([3]; first compound 1 µM) of 0.383, a relative viability ([4]; first compound 0.01 µM) of 1.01 and a relative viability ([4]; first compound 0.03162 µM) of 1.21. It also gave a relative viability ([4]; first compound 0.1 µM) of 1.09, a relative viability ([4]; first compound 0.3162 µM) of 0.97 and a relative viability ([4]; first compound 1 µM) of 0.739.

For HCC-78, the relative viability ([1]; first compound 0.01 µM) was 0.728, the relative viability ([1]; first compound 0.03162 µM) was 0.798 and the relative viability ([1]; first compound 0.1 µM) was 0.341. For the same cell line, the relative viability ([1]; first compound 0.3162 µM) was 0.313, the relative viability ([1]; first compound 1 µM) was 0.158 and the relative viability ([2]; first compound 0.01 µM) was 0.533. It also gave a relative viability ([2]; first compound 0.03162 µM) of 0.519, a relative viability ([2]; first compound 0.1 µM) of 0.534 and a relative viability ([2]; first compound 0.3162 µM) of 0.399. It also gave a relative viability ([2]; first compound 1 µM) of 0.507, a relative viability ([3]; first compound 0.01 µM) of 0.388 and a relative viability ([3]; first compound 0.03162 µM) of 0.362. The relative viability ([3]; first compound 0.1 µM) was 0.487, the relative viability ([3]; first compound 0.3162 µM) was 0.399 and the relative viability ([3]; first compound 1 µM) was 0.391. For the same cell line, the relative viability ([4]; first compound 0.01 µM) was 0.585, the relative viability ([4]; first compound 0.03162 µM) was 0.759 and the relative viability ([4]; first compound 0.1 µM) was 0.648. It also gave a relative viability ([4]; first compound 0.3162 µM) of 0.403 and a relative viability ([4]; first compound 1 µM) of 0.299.

Cell Line HCC-366 has a relative viability ([1]; first compound 0.01 µM) of 0.923, a relative viability ([1]; first compound 0.03162 µM) of 1.05 and a relative viability ([1]; first compound 0.1 µM) of 0.864. The relative viability ([1]; first compound 0.3162 µM) was 0.306, the relative viability ([1]; first compound 1 µM) was 0.0332 and the relative viability ([2]; first compound 0.01 µM) was 0.872. For the same cell line, the relative viability ([2]; first compound 0.03162 µM) was 0.702, the relative viability ([2]; first compound 0.1 µM) was 0.337 and the relative viability ([2]; first compound 0.3162 µM) was 0.0868. It also gave a relative viability ([2]; first compound 1 µM) of 0.0636, a relative viability ([3]; first compound 0.01 µM) of 0.115 and a relative viability ([3]; first compound 0.03162 µM) of 0.135. It also gave a relative viability ([3]; first compound 0.1 µM) of 0.0903, a relative viability ([3]; first compound 0.3162 µM) of 0.0328 and a relative viability ([3]; first compound 1 µM) of 0.0275. It also gave a relative viability ([4]; first compound 0.01 µM) of 0.338, a relative viability ([4]; first compound 0.03162 µM) of 0.36 and a relative viability ([4]; first compound 0.1 µM) of 0.249. For the same cell line, the relative viability ([4]; first compound 0.3162 µM) was 0.0581 and the relative viability ([4]; first compound 1 µM) was 0.0512.

In the case of HCC-827, the relative viability ([1]; first compound 0.01 µM) is reported as 1.03, the relative viability ([1]; first compound 0.03162 µM) is reported as 0.985 and the relative viability ([1]; first compound 0.1 µM) is reported as 0.956. It also gave a relative viability ([1]; first compound 0.3162 µM) of 0.613, a relative viability ([1]; first compound 1 µM) of 0.331 and a relative viability ([2]; first compound 0.01 µM) of 0.955. For the same cell line, the relative viability ([2]; first compound 0.03162 µM) was 1.22, the relative viability ([2]; first compound 0.1 µM) was 0.913 and the relative viability ([2]; first compound 0.3162 µM) was 0.558. It also gave a relative viability ([2]; first compound 1 µM) of 0.266, a relative viability ([3]; first compound 0.01 µM) of 0.857 and a relative viability ([3]; first compound 0.1 µM) of 0.736. For the same cell line, the relative viability ([3]; first compound 0.3162 µM) was 0.585, the relative viability ([3]; first compound 1 µM) was 0.207 and the relative viability ([4]; first compound 0.01 µM) was 0.497. The relative viability ([4]; first compound 0.03162 µM) was 0.525, the relative viability ([4]; first compound 0.1 µM) was 0.315 and the relative viability ([4]; first compound 0.3162 µM) was 0.23. For the same cell line, the relative viability ([4]; first compound 1 µM) was 0.187.

HOP-62 showed a relative viability ([1]; first compound 0.01 µM) of 1.07, a relative viability ([1]; first compound 0.03162 µM) of 0.995 and a relative viability ([1]; first compound 0.1 µM) of 0.987. The relative viability ([1]; first compound 0.3162 µM) was 0.598, the relative viability ([1]; first compound 1 µM) was 0.236 and the relative viability ([2]; first compound 0.01 µM) was 0.596. It also gave a relative viability ([2]; first compound 0.03162 µM) of 0.458, a relative viability ([2]; first compound 0.1 µM) of 0.39 and a relative viability ([2]; first compound 0.3162 µM) of 0.193. For the same cell line, the relative viability ([2]; first compound 1 µM) was 0.127, the relative viability ([3]; first compound 0.01 µM) was 0.277 and the relative viability ([3]; first compound 0.03162 µM) was 0.277. It also gave a relative viability ([3]; first compound 0.1 µM) of 0.179, a relative viability ([3]; first compound 0.3162 µM) of 0.102 and a relative viability ([3]; first compound 1 µM) of 0.0753. The relative viability ([4]; first compound 0.01 µM) was 0.348, the relative viability ([4]; first compound 0.03162 µM) was 0.395 and the relative viability ([4]; first compound 0.1 µM) was 0.325. For the same cell line, the relative viability ([4]; first compound 0.3162 µM) was 0.343 and the relative viability ([4]; first compound 1 µM) was 0.316.

With IA-LM the relative viability ([1]; first compound 0.01 µM) was 0.595, the relative viability ([1]; first compound 0.03162 µM) was 0.742 and the relative viability ([1]; first compound 0.1 µM) was 0.731. For the same cell line, the relative viability ([1]; first compound 0.3162 µM) was 0.616, the relative viability ([1]; first compound 1 µM) was 0.431 and the relative viability ([2]; first compound 0.01 µM) was 1.09. It also gave a relative viability ([2]; first compound 0.03162 µM) of 0.96, a relative viability ([2]; first compound 0.1 µM) of 0.899 and a relative viability ([2]; first compound 0.3162 µM) of 0.56. The relative viability ([2]; first compound 1 µM) was 0.241, the relative viability ([3]; first compound 0.01 µM) was 0.791 and the relative viability ([3]; first compound 0.03162 µM) was 0.802. It also gave a relative viability ([3]; first compound 0.1 µM) of 0.801, a relative viability ([3]; first compound 0.3162 µM) of 0.398 and a relative viability ([3]; first compound 1 µM) of 0.635.

Cell Line LC-2-ad has a relative viability ([1]; first compound 0.01 µM) of 0.586, a relative viability ([1]; first compound 0.03162 µM) of 0.446 and a relative viability ([1]; first compound 0.1 µM) of 0.405. It also gave a relative viability ([1]; first compound 0.3162 µM) of 0.276, a relative viability ([1]; first compound 1 µM) of 0.183 and a relative viability ([2]; first compound 0.01 µM) of 0.754. The relative viability ([2]; first compound 0.03162 µM) was 0.729, the relative viability ([2]; first compound 0.1 µM) was 0.483 and the relative viability ([2]; first compound 0.3162 µM) was 0.264. For the same cell line, the relative viability ([2]; first compound 1 µM) was 0.281, the relative viability ([3]; first compound 0.01 µM) was 0.62 and the relative viability ([3]; first compound 0.03162 µM) was 0.609. For the same cell line, the relative viability ([3]; first compound 0.1 µM) was 0.466, the relative viability ([3]; first compound 0.3162 µM) was 0.236 and the relative viability ([3]; first compound 1 µM) was 0.2. It also gave a relative viability ([4]; first compound 0.01 µM) of 0.884, a relative viability ([4]; first compound 0.03162 µM) of 0.902 and a relative viability ([4]; first compound 0.1 µM) of 0.988. It also gave a relative viability ([4]; first compound 0.3162 µM) of 0.743 and a relative viability ([4]; first compound 1 µM) of 0.689.
